Experiments:
Pyricularia grisea = assay type: in vivo; conditions: 500 ppm; rice plants sprayed 24 hours before inoculation; scored after 6 days
Puccinia recondita = assay: Example F: in vivo test on Puccinia recondita (wheat brown rust); conditions: 240 h, wheat plants sprayed 24 hours before inoculation, scored after 10 days, read-out: % Wirkungsgrad
Method: In Vivo Test on Puccinia Recondita (Wheat Brown Rust) An aqueous suspension of the active substance was prepared by homogenization of a mixture of acetone/Tween/dimethyl sulphoxide and subsequent dilution with water to the desired concentration. Wheat plants (variety: Scipion) are sown in cultivation dishes on a peat-pozzolanic earth substrate (50/50) at 12° C. and sprayed at the first-leaf stage (10 cm size) with the aqueous suspension described above. As a control, plants are sprayed with an aqueous solution with no active substance. After 24 hours the plants are inoculated by spraying with an aqueous suspension of Puccinia recondita spores (100,000 spores per ml). The spores are derived from a 10 day-old infected wheat crop and are suspended in water with 2.5 ml/l Tween. […] After 10 days they are scored in comparison with the control plants.

Alternaria solani = assay: Example M: in vivo test on Alternaria solani (leaf blotch disease/tomato/protective); conditions: 168 h, tomato, protective, 500 ppm active substance, assessed 7 days after inoculation, read-out: % Wirkungsgrad (activity level)
In short: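 Protective test: young tomato plants sprayed with active substance (in DMF with alkylaryl polyglycol ether emulsifier, diluted in water) at the stated dosage, then inoculated with Alternaria solani. Disease assessed 7 days after inoculation.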

SMILES	% Activity level (Pyricularia grisea) [%]	pest or weed control at 500 ppm (Puccinia recondita) [%]	pest or weed control at 500 ppm (Alternaria solani) [%]
CC(C)Cn1cc(-c2ccncc2)c(-c2ccc(F)cc2)n1 [Compound 1]	82	89	
CC(C)C(=O)Nc1cc(-c2cn(C(C)C)nc2-c2ccc(F)cc2)ccn1 [Compound 84]		78	95
CCC(=O)Nc1cc(-c2cn(C(C)C)nc2-c2ccc(F)cc2)ccn1 [Compound 85]			100

From US20110183978A1, “Phenylpyri(mi)dinylazoles” (Bayer CropScience AG, priority 2009, published 2011)
